Measurements reported in the supplement of paper PMC11451515.

System: NOMO1
Test: cell viability relative to DMSO control; higher = less cytotoxic
Details: 48 h
Outline: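 Viability was expressed as a per-plate percentage of DMSO wells, with cell-free wells as background. Leukemia cells (NOMO1 or SEM at 500 cells/well, P12-Ichikawa at 1000 cells/well) were adapted for at least four passages in each medium and seeded in 1536-well plates (5 μl). Library compounds in DMSO were pin-dosed over an 11-point threefold series from 47 μM to 0.79 nM, and CellTiter-Glo One luminescence was read after 48 h at 37°C.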

[1] = HPLM + 10% dialyzed FBS, 0.000781 µM
[2] = HPLM + 10% dialyzed FBS, 0.00234 µM
[3] = HPLM + 10% dialyzed FBS, 0.00702 µM
[4] = HPLM + 10% dialyzed FBS, 0.0211 µM
[5] = HPLM + 10% dialyzed FBS, 0.0632 µM
[6] = HPLM + 10% dialyzed FBS, 0.19 µM
[7] = HPLM + 10% dialyzed FBS, 0.569 µM
[8] = HPLM + 10% dialyzed FBS, 1.71 µM
[9] = HPLM + 10% dialyzed FBS, 5.12 µM
[10] = HPLM + 10% dialyzed FBS, 15.4 µM
[11] = HPLM + 10% dialyzed FBS, 46.1 µM
[12] = RPMI 5 mM glucose + 10% FBS, 0.000781 µM
[13] = RPMI 5 mM glucose + 10% FBS, 0.00234 µM
[14] = RPMI 5 mM glucose + 10% FBS, 0.00702 µM
[15] = RPMI 5 mM glucose + 10% FBS, 0.0211 µM
[16] = RPMI 5 mM glucose + 10% FBS, 0.0632 µM
[17] = RPMI 5 mM glucose + 10% FBS, 0.19 µM
[18] = RPMI 5 mM glucose + 10% FBS, 0.569 µM
[19] = RPMI 5 mM glucose + 10% FBS, 1.71 µM
[20] = RPMI 5 mM glucose + 10% FBS, 5.12 µM
[21] = RPMI 5 mM glucose + 10% FBS, 15.4 µM
[22] = RPMI 5 mM glucose + 10% FBS, 46.1 µM
[23] = RPMI 5 mM glucose + 10% dialyzed FBS, 0.000781 µM
[24] = RPMI 5 mM glucose + 10% dialyzed FBS, 0.00234 µM
[25] = RPMI 5 mM glucose + 10% dialyzed FBS, 0.00702 µM
[26] = RPMI 5 mM glucose + 10% dialyzed FBS, 0.0211 µM
[27] = RPMI 5 mM glucose + 10% dialyzed FBS, 0.0632 µM
[28] = RPMI 5 mM glucose + 10% dialyzed FBS, 0.19 µM
[29] = RPMI 5 mM glucose + 10% dialyzed FBS, 0.569 µM
[30] = RPMI 5 mM glucose + 10% dialyzed FBS, 1.71 µM
[31] = RPMI 5 mM glucose + 10% dialyzed FBS, 5.12 µM
[32] = RPMI 5 mM glucose + 10% dialyzed FBS, 15.4 µM
[33] = RPMI 5 mM glucose + 10% dialyzed FBS, 46.1 µM

Row | SMILES | cell viability [1] | cell viability [2] | cell viability [3] | cell viability [4] | cell viability [5] | cell viability [6] | cell viability [7] | cell viability [8] | cell viability [9] | cell viability [10] | cell viability [11] | cell viability [12] | cell viability [13] | cell viability [14] | cell viability [15] | cell viability [16] | cell viability [17] | cell viability [18] | cell viability [19] | cell viability [20] | cell viability [21] | cell viability [22] | cell viability [23] | cell viability [24] | cell viability [25] | cell viability [26] | cell viability [27] | cell viability [28] | cell viability [29] | cell viability [30] | cell viability [31] | cell viability [32] | cell viability [33]
1 | Cc1c(CN2CCN(C(=O)[C@H](C)O)CC2)sc2c(N3CCOCC3)nc(-c3cnc(N)nc3)nc12 | 77.8% | 100% | 89.8% | 90.4% | 86.5% | 71.5% | 53.9% | 46.9% | 33.7% | 39.4% | 40.5% | 79.2% | 93.6% | 93.9% | 88.6% | 91.5% | 86.9% | 69.1% | 58.2% | 52.5% | 47.9% | 43.9% | 79.7% | 94% | 81.2% | 74.5% | 69.5% | 73.7% | 59.1% | 45.4% | 47.8% | 44.6% | 39.3%
2 | CC(=O)Nc1ccc(OC[C@](C)(O)C(=O)Nc2ccc([N+](=O)[O-])c(C(F)(F)F)c2)cc1 | 66.3% | 68.2% | 72.9% | 70.6% | 87.7% | 80.2% | 88.4% | 83.5% | 83.4% | 77.8% | 82.4% | 70.5% | 76.9% | 75.4% | 82.8% | 87% | 83% | 82.8% | 88.2% | 76.2% | 86.9% | 82.2% | 72% | 78.1% | 87.3% | 83.1% | 92.7% | 86.1% | 85.1% | 85.6% | 85.2% | 92.5% | 78%
3 | CCC[C@H](NC(=O)/C(C#N)=C/c1cccc(Br)n1)c1ccccc1 |  |  |  |  |  |  |  |  |  |  |  | 110% | 123% | 116% | 111% | 111% | 107% | 103% | 108% | 104% | 111% | 4.55% | 109% | 114% | 122% | 115% | 109% | 117% | 120% | 116% | 108% | 99.9% | 4.54%
4 | O=C([O-])C(O)Cc1ccc(O)c(O)c1 (centres undefined) | 100% | 91% | 108% | 95.5% | 116% | 106% | 99.4% | 100% | 90.8% | 74.9% | 60.1% | 91.8% | 83.7% | 87.1% | 96.5% | 91.2% | 91.8% | 84% | 92.5% | 87.4% | 77.9% | 64.3% | 96.7% | 102% | 104% | 100% | 96.4% | 91.4% | 100% | 84.4% | 81.4% | 78.5% | 65.4%
5 | COc1cc2c(cc1-c1c(C)noc1C)ncc1[nH]c(=O)n([C@H](C)c3ccccn3)c12 |  |  |  |  |  |  |  |  |  |  |  | 122% | 110% | 114% | 115% | 111% | 99.8% | 108% | 98.2% | 30.8% | 30.5% | 22% | 114% | 124% | 98.3% | 118% | 124% | 117% | 118% | 102% | 30.1% | 35.6% | 22.7%
6 | Nc1ccccc1NC(=O)c1ccc(CNC(=O)OCc2cccnc2)cc1 | 103% | 127% | 111% | 108% | 118% | 110% | 81.1% | 47% | 22.9% | 12.7% | 3.22% | 103% | 92.5% | 103% | 99% | 108% | 103% | 88.7% | 58.6% | 33.9% | 10.7% | 3.59% | 115% | 107% | 110% | 115% | 123% | 97.3% | 94.2% | 53.9% | 24.7% | 9.54% | 2.99%
7 | N=C(CCSCc1csc(N=C(N)N)n1)N[S+](N)(=O)[O-] | 87% | 95.6% | 110% | 101% | 99.1% | 83.2% | 101% | 115% | 101% | 91.8% | 107% | 80.2% | 94.7% | 94.8% | 92% | 92.2% | 97.5% | 93.8% | 88.1% | 99.1% | 86.8% | 88.3% | 84.7% | 96% | 89.9% | 92.1% | 100% | 106% | 95.7% | 93.7% | 100% | 97% | 103%
